Some results are limits rather than exact numbers.

This experiment deals with T1, HIS-tagged RORγ-LBD (Homo sapiens, UniProt P51449).
T1 construct: HIS-tagged RORγ-LBD was recombinantly expressed in SF9 cells using a baculovirus expression system; made in house; host or cells: SF9 cells, baculovirus; crude lysate used
T1 sequence (P51449 269-508 limits assumed): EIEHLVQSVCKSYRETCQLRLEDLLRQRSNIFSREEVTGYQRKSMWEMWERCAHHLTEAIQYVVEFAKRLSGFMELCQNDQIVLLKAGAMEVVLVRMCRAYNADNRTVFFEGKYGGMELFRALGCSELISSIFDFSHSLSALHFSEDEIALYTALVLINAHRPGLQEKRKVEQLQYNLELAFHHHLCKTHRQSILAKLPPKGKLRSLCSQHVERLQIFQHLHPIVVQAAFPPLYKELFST
In words: TR-FRET assay (Protocol B), RORγ-LBD lysate / biotinylated SRC1-2 LXXLL peptide. The experiment is classed as biochemical. Conditions: unpurified RORγ-LBD lysate ~10 nM, SRC1-2 peptide 450 nM. From the text:
Activation of RORgammaT activity can be measured using e.g. biochemical TR-FRET assay. In such an assay, interaction of cofactor-derived peptides with human RORgammaT-Ligand Binding Domain (LBD) can be measured.
To identify novel antagonists of RORgammaT, an assay was developed which employs the interaction of RORgammaT with its co-activator peptide SRC1_2. […] The assay was run following three slightly different protocols, i.e. Protocol A, Protocol B, and Protocol C, which are described below.
TR-Fret Assay (Protocol B)
HIS-tagged RORγ-LBD was recombinantly expressed in SF9 cells using a baculovirus expression system. The protein was not purified. Cells were lysed and the lysate was used as a source for RORγ-LBD for the assay. A 1:80 dilution of RORγ-LBD lysate in assay buffer (25 mM HEPES pH 7.0, 100 mM NaCl, 0.01% Tween, 0.1% BSA) was prepared and 5 μL was added to each well (RORγ-LBD final concentration ˜10 nM). Control wells received lysate from SF9 cells not expressing RORγ-LBD.
Compounds to be tested were diluted to 100× final test concentration in DMSO and further diluted to 4× final test concentration using assay buffer to provide the test compound mixture. An aliquot (5 μL) of the test compound mixture was added to each well.
`O=C(c1c(Cl)cccc1C(F)(F)F)n1nc(-c2ccc(C(O)(C(F)(F)F)C(F)(F)F)cc2)c2ncccc21` [Example 24AE, (2-chloro-6-(trifluoromethyl)-phenyl)(3-(4-(1,1,1,3,3,3-hexafluoro-2-hydroxypropan-2-yl)phenyl)-1H-pyrazolo[4,3-b]pyridin-1-yl)methanone] returned an IC50 of 500 to 10000 nM.

On to `O=C(O)c1c(O)cc(-c2nn(C(=O)c3c(Cl)cccc3C(F)(F)F)c3cccc(F)c23)cc1F` [Example 26D, 4-(1-(2-chloro-6-(trifluoromethyl)benzoyl)-4-fluoro-1H-indazol-3-yl)-2-fluoro-6-hydroxybenzoic acid], for which the IC50 is below 50 nM.

Take `O=C(O)c1ccc(-c2nn(C(=O)c3c(Cl)cccc3C(F)(F)F)c3cc(C(=O)NCCO)ccc23)c(F)c1` [Example 25H, 4-(1-(2-chloro-6-(trifluoromethyl)benzoyl)-6-(2-hydroxyethyl-carbamoyl)-1H-indazol-3-yl)-3-fluorobenzoic acid]: the 50% inhibitory concentration (IC50) is below 50 nM.

For the compound `O=C(O)c1ccc(-c2nn(C(=O)c3c(Cl)cccc3C(F)(F)F)c3cc(O)ccc23)c(F)c1` [Example 24BB, 4-(1-(2-chloro-6-(trifluoromethyl)-benzoyl)-6-hydroxy-1H-indazol-3-yl)-3-fluorobenzoic acid], the IC50 was below 50 nM.

`O=C(O)c1ccc(-c2nn(C(=O)c3c(Cl)cccc3C(F)(F)F)c3cc(C(=O)NCCCO)ccc23)c(F)c1` [Example 25M, 4-(1-(2-chloro-6-(trifluoromethyl)benzoyl)-6-(3-hydroxypropyl-carbamoyl)-1H-indazol-3-yl)-3-fluorobenzoic acid] gave a half-maximal inhibitory concentration (IC50) below 50 nM.

On to `N#Cc1cc(-c2nn(C(=O)c3c(Cl)cccc3C(F)(F)F)c3cccc(F)c23)ccc1C(=O)O` [Example 24U, 4-(1-(2-chloro-6-(trifluoromethyl)-benzoyl)-4-fluoro-1H-indazol-3-yl)-2-cyano benzoic acid], for which the IC50 was below 50 nM.

Compound `NC(=O)c1ccc(-c2nn(C(=O)c3c(Cl)cccc3C(F)(F)F)c3cccc(F)c23)cc1` [Example 24J, 4-(1-(2-chloro-6-(trifluoromethyl)-benzoyl)-4-fluoro-1H-indazol-3-yl)benzamide] had a 50% inhibitory concentration (IC50) of 50 to 500 nM.

Consider `O=C(O)c1ccc(-c2nn(C(=O)c3c(Cl)cccc3C(F)(F)F)c3cccnc23)c(Cl)c1` [Example 24AG, 3-chloro-4-(1-(2-chloro-6-(trifluoromethyl)-benzoyl)-1H-pyrazolo[4,3-b]pyridin-3-yl)benzoic acid], for which the IC50 is below 50 nM.

As for `O=C(O)c1ccc(-c2nn(C(=O)c3c(Cl)cccc3C(F)(F)F)c3cccnc23)c(F)c1` [Example 24C, sodium 4-(1-(2-chloro-6-(trifluoromethyl)benzoyl)-1H-pyrazolo[4,3-b]pyridin-3-yl)-3-fluorobenzoate], the IC50 was below 50 nM.

In the case of `O=C(O)c1c(F)cc(-c2nn(C(=O)c3c(Cl)cccc3C(F)(F)F)c3cccc(F)c23)cc1F` [Example 24R, 4-(1-(2-chloro-6-(trifluoromethyl)-benzoyl)-4-fluoro-1H-indazol-3-yl)-2,6-difluorobenzoic acid], the IC50 is below 50 nM.

As to `O=C(O)Cc1ccc(-c2nn(C(=O)c3c(Cl)cccc3C(F)(F)F)c3cccnc23)cc1` [Example 24AD, 2-(4-(1-(2-chloro-6-(trifluoromethyl)-benzoyl)-1H-pyrazolo[4,3-b]pyridin-3-yl)phenyl)acetic acid], the IC50 lay within 500 to 10000 nM.

Regarding `O=C(O)c1ccc(-c2nn(C(=O)c3c(Cl)cccc3C(F)(F)F)c3cc(C(=O)NCCO)ccc23)cc1` [Example 25A, sodium 4-(1-(2-chloro-6-(trifluoromethyl)benzoyl)-6-(2-hydroxyethylcarbamoyl)-1H-indazol-3-yl)benzoate], the half-maximal inhibitory concentration (IC50) is below 50 nM.

The compound `Cc1cc(C(=O)O)ccc1-c1nn(C(=O)c2c(Cl)cccc2C(F)(F)F)c2cccc(F)c12` [Example 24L, 4-(1-(2-chloro-6-(trifluoromethyl)-benzoyl)-4-fluoro-1H-indazol-3-yl)-3-methylbenzoic acid] displayed a 50% inhibitory concentration (IC50) below 50 nM.

In the case of `N#Cc1ccc2c(-c3ccc(C(=O)O)cc3)nn(C(=O)c3c(Cl)cccc3C(F)(F)F)c2c1` [Example 29, 4-(1-(2-chloro-6-(trifluoromethyl)benzoyl)-6-cyano-1H-indazol-3-yl)benzoic acid], the IC50 fell in the range of 50 to 500 nM.

For `CN(CCO)C(=O)c1ccc2c(-c3ccc(C(=O)O)cc3)nn(C(=O)c3c(Cl)cccc3C(F)(F)F)c2c1` [Example 25Q, 4-(1-(2-chloro-6-(trifluoromethyl)benzoyl)-6-((2-hydroxyethyl) (methyl)carbamoyl)-1H-indazol-3-yl)benzoic acid], the IC50 is below 50 nM.

For the compound `O=C(O)c1ccc(-c2nn(C(=O)c3c(Cl)cccc3C(F)(F)F)c3cc(C(=O)NCCCCO)ccc23)cc1` [Example 25P, 4-(1-(2-chloro-6-(trifluoromethyl)benzoyl)-6-(4-hydroxybutyl-carbamoyl)-1H-indazol-3-yl)benzoic acid], the IC50 was below 50 nM.

On to `Cc1cc(C(=O)O)c(F)cc1-c1nn(C(=O)c2c(Cl)cccc2C(F)(F)F)c2cccc(F)c12` [Example 24K, 4-(1-(2-chloro-6-(trifluoromethyl)-benzoyl)-4-fluoro-1H-indazol-3-yl)-2-fluoro-5-methylbenzoic acid], for which the IC50 is below 50 nM.

Regarding `O=C(O)c1ccc(-c2nn(C(=O)c3c(Cl)cccc3C(F)(F)F)c3cc(CO)ccc23)cc1` [Example 24BE, 4-(1-(2-chloro-6-(trifluoromethyl)-benzoyl)-6-(hydroxymethyl)-1H-indazol-3-yl)benzoic acid], the IC50 is below 50 nM.

Compound `O=C(O)c1ccc(-c2nn(C(=O)c3c(Cl)cccc3C(F)(F)F)c3cc(C(=O)NCCO)ccc23)c(Cl)c1` [Example 25K, 3-chloro-4-(1-(2-chloro-6-(trifluoromethyl)benzoyl)-6-(2-hydroxyethyl-carbamoyl)-1H-indazol-3-yl)benzoic acid] came in with an IC50 below 50 nM.

As for `COc1cc(F)c2c(-c3ccc(C(=O)O)cc3)nn(C(=O)c3c(Cl)cccc3C(F)(F)F)c2c1` [Example 24AZ, 4-(1-(2-chloro-6-(trifluoromethyl)-benzoyl)-4-fluoro-6-methoxy-1H-indazol-3-yl) benzoic acid], the IC50 was 50 to 500 nM.

For the compound `O=C(O)Cc1cccc(-c2nn(C(=O)c3c(Cl)cccc3C(F)(F)F)c3cccc(F)c23)c1` [Example 24F, 2-(3-(1-(2-chloro-6-(trifluoromethyl)-benzoyl)-4-fluoro-1H-indazol-3-yl)phenyl)acetic acid], the IC50 was in the range of 500 to 10000 nM.

`COc1cc(-c2nn(C(=O)c3c(Cl)cccc3C(F)(F)F)c3cccnc23)ccc1C(=O)O` [Example 24AI, 4-(1-(2-chloro-6-(trifluoromethyl)-benzoyl)-1H-pyrazolo[4,3-b]pyridin-3-yl)-2-methoxybenzoic acid]: the half-inhibitory concentration (IC50) was in the range of 50 to 500 nM.

`COc1cc(-c2nn(C(=O)c3c(Cl)cccc3C(F)(F)F)c3cccc(F)c23)c(F)cc1C(=O)O` [Example 24Y, 4-(1-(2-chloro-6-(trifluoromethyl)-benzoyl)-4-fluoro-1H-indazol-3-yl)-5-fluoro-2-methoxybenzoic acid] gave an IC50 below 50 nM.

As for `O=C(O)c1cccc(-c2nn(C(=O)c3c(Cl)cccc3C(F)(F)F)c3cccnc23)c1` [Example 24AC, 3-(1-(2-chloro-6-(trifluoromethyl)-benzoyl)-1H-pyrazolo[4,3-b]pyridin-3-yl) benzoic acid], the concentration for half-maximal inhibition (IC50) was 500 to 10000 nM.

Regarding `NCc1ccc2c(-c3ccc(C(=O)O)cc3)nn(C(=O)c3c(Cl)cccc3C(F)(F)F)c2c1` [Example 27A, 4-(6-(aminomethyl)-1-(2-chloro-6-(trifluoromethyl)benzoyl)-1H-indazol-3-yl)benzoic acid], the IC50 was below 50 nM.

As to `COc1cc(C(=O)O)cc(OC)c1-c1nn(C(=O)c2c(Cl)cccc2C(F)(F)F)c2cccc(F)c12` [Example 24T, 4-(1-(2-chloro-6-(trifluoromethyl)-benzoyl)-4-fluoro-1H-indazol-3-yl)-3,5-dimethoxybenzoic acid], the IC50 was above 10000 nM.

Compound `O=C(O)c1ccc(-c2nn(C(=O)c3c(Cl)cccc3C(F)(F)F)c3cc(O)cc(F)c23)cc1` [Example 24BC, 4-(1-(2-chloro-6-(trifluoromethyl)-benzoyl)-4-fluoro-6-hydroxy-1H-indazol-3-yl)benzoic acid] yielded an IC50 of 500 to 10000 nM.

Compound `Cc1cc(-c2nn(C(=O)c3c(Cl)cccc3C(F)(F)F)c3cccc(F)c23)ccc1C(=O)O` [Example 24P, 4-(1-(2-chloro-6-(trifluoromethyl)-benzoyl)-4-fluoro-1H-indazol-3-yl)-2-methylbenzoic acid] registered an IC50 below 50 nM.

Turning to `O=C(O)c1ccc(-c2nn(C(=O)c3c(Cl)cccc3C(F)(F)F)c3cccnc23)cc1O` [Example 26H, 4-(1-(2-chloro-6-(trifluoromethyl)benzoyl)-1H-pyrazolo[4,3-b]pyridin-3-yl)-2-hydroxybenzoic acid], the half-maximal inhibitory concentration (IC50) was below 50 nM.

(Values after patent US9884043B2, “RORgammaT inhibitors” (Merck Sharp & Dohme Corp., priority 2011, dated 2018).)
